Assay results reported in patent US20230355773A1, “[…] DRUG CONJUGATES” (P.I.F. Entrepreneurs Ltd., priority 2020, published 2023).
Read-outs that look alike come from different tables or passages of the source.

Legend:
[1] = tested on: activated macrophages (THP1 monocytes transformed with PMA, infected with Leishmania donovani); details: for activated macrophage survival: 0.1, 1 and 10 µg/ml, 12-14 hours of incubation, FIG. 1
Procedure: (§1) A macrophage killing assay was performed in order to determine potential of conjugates described herein for treatment of macrophage-related diseases. THP1 monocytes were transformed into macrophages for using phorbol myristate acetate (PMA). […] The data shown in FIG. 1 represents macrophage survival percent after 12-14 hours of incubation with conjugates. […] In the figure, series 1 represents control macrophages which were not infected. Series 2, 3 and 4 represent the 0.1, 1 and 10 µg/ml dosages. The values shown in these series represented number of cells, as normalized to control, non-infected macrophages.
(§2) Media used for macrophage assay: RPMI with 10% FCS, supplemented with pencillin streptomycin and glutamine. The compounds were prepared in phosphate buffered saline with pH adjusted to 7.6 and were used immediately after preparation.
Infection of macrophage: The macrophages were infected with 5x times with Leishmania donovani - for a density of 1x10^5 monocytes transformed to macrophage, the infection density is 5 x 10^5 L.donovani.
(§3) The experiment was performed according to the following schedule: • Monocyte to macrophage transformation: 0 to 48 hours • Macrophage Infection with Leishmania: 48-84 hours • Treatment with compound: 84 - 96 hours • Plate used for assay: Microscopy compatible glass bottom plate -24 wells.
The macrophages that were alive were counted in five different fields of the wells for different concentration and the average count was used for the assay. Based on the count of the control macrophages, the % was adjusted.

[2] = tested on: non-infected macrophages (THP1 monocytes transformed with PMA); details: 10 µg/ml, live imaging, 8 hours, FIG. 2
Procedure: as §1, with “FIG.” for “FIG. 1 represents macrophage survival percent after 12-14 hours of incubation with conjugates.”
as §2, §3

[3] = fasted mice
Procedure: CC57BL/6 mice aged approximately 9 weeks were weighed and acclimated to facility conditions. Animals were assigned to 3 treatment groups based on their body weights, creating homogenous groups of 5 mice in each group. After fasting, blood glucose of levels of mice were tested at time 0, at which time the test drug was administered, then subsequently at 30, 60, 90 and 120 minutes post administration, using blood glucose test strips.

[4] = tested on: neuroinflammatory response induced by LPS; details: I5 100 µg per mouse s.c.
Procedure: 120 mice (female C57BL/6) mice approximately 6 weeks old were assigned into groups based on body weight, creating homogenous groups, and acclimated to facility conditions over 5 days.
A neuroinflammatory response was induced in all mice by intraperitoneal administration of 5 mg/kg of LPS. […] Group 2: dexamethasone at […]. Group 3: Vehicle. Test items were administered at the following time points: 30 minutes before LPS injection, 2 hours post-LPS injection and 10 hours post LPS injection (where applicable). 10 animals from each group were sacrificed at the following time points: 4, 8, 24 and 48 hours post LPS administration. Brains were collected and preserved in buffered 4% formaldehyde. Bronchoalveolar lavage fluid was extract from lungs of all animals.

[5] = tested on: cytokines levels after LPS induction; details: 100 µg per mouse s.c.
[6] = female, ICR, mouse, in vivo
in vivo = details: female, ICR, mouse
[7] = 24 hours following LPS induction
[8] = plasma, parameters used for estimating t½
[9] = plasma, single IV, I5 200 mg/kg, dexamethasone sodium phosphate 40 mg/kg

With `C[C@@H]1C[C@H]2[C@@H]3CCC4=C/C(=N/OCCCO[C@H]5O[C@H](CO)[C@@H](O)[C@H](O)[C@@H]5O)C=C[C@]4(C)[C@@]3(F)[C@@H](O)C[C@]2(C)[C@@]1(O)C(=O)CO` [Compound I5, 1-((8S,9R,10S,11S,13S,14S,16R,17R,E)-9-Fluoro-11,17-Dihydroxy-10,13,16-Trimethyl-3-((3-(((2S,3S,4S,5S,6R)-3,4,5–Trihydroxy-6-(Hydroxymethyl)Tetrahydro-2H-Pyran-2-yl)oxy)propoxy)imino)-6,7,8,9,10,11,12,13,14,15,16,17-Dodecahydro-3H-cyclopenta[a]phenanthren-17-yl)-2-Hydroxyethan-1-One] the “time to killing of activated macrophages” value ([1]; 10 µg/ml, live imaging, FIG. 2) was ≤ 8 h, the activated macrophage survival [1] was “particularly effective” and the “effect on macrophages not activated by infection” value [2] was “remained unchanged”. For the same compound, the “blood glucose relative to baseline” value ([3]; 100 µg per mouse, 30 to 120 minutes post-administration) was “not increased above baseline”, the “blood glucose relative to baseline” value ([3]; 2500 µg per mouse (25-fold molar equivalent of 65 µg dexamethasone)) was “no elevation of blood glucose level” and the “Clinical score - Appearance” value ([4]; 24 Hr. following LPS induction, vs groups 2 and 3) was “best clinical score”. The “Clinical score - Eye condition” value [4, 7] was “best clinical score”, the “Clinical score - Response to stimulus” value [4, 7] was “best clinical score” and the Total clinical score ([4]; compared to groups 2 and 3) was “best clinical score”. The “blood-brain barrier penetration, evidenced by CNS cytokine levels” value ([5]; LPS model) was “able to penetrate the blood-brain barrier”, the “Cytokines levels in Bronchoalveolar lavage fluid” value ([5]; IL-1 a and MCP1 (4 Hr. post LPS), MCP1 (8 Hr. post LPS)) was “immunomodulatory effect” and the “Cytokines levels in brains” value ([5]; IL-2 (4 and 8 Hr. post LPS), IL-10 (8 Hr.), VEGF a (8 and 24 Hr.), vs groups 2 and 3) was “immunomodulatory effect”. For the same compound, the “Cytokines levels in serum” value ([5]; IL-17 and RANTES (4 Hr. post LPS), LIF (8 Hr. post LPS)) was “immunomodulatory effect”, the relative systemic exposure (200 mg Compound I5 compared to 40 mg Dexamethasone) was 4.2% and the “elimination curve in plasma” value (mice after IV dosing) was “two-phase elimination curve”. The AUC%Extrap [8] was 0.403%, the Lambda z [8] was 0.164 h⁻¹ and the AUCINF/Dose (plasma, single IV) was 93.4 h^∗ng/mL/mg/kg. The “Exprel, relative systemic exposure [AUCinf/dose (Compound I5)/AUCinf/dose (Dexamethasone)] x 100” value (plasma, single IV, I5 200 mg/kg vs dexamethasone 40 mg/kg) was 4.2%, the CL [9] was 178.33 mL/min/kg and the Tlast [9] was 24.0 h. For the same compound, the “Concentration in brain (CSF) (pooled)” value [6] was 29.4 ng/mL, the “pooled CSF levels detected” value ([6]; iv) was 6.86 to 29.4 ng/mL and the “CSF levels as fold the LLOQ (5.00 ng/mL)” value ([6]; iv, 200 mg/kg) was 1.4-5.9 fold. The half-life (in vivo; T½, plasma, table Parameters used for estimating t½ in plasma) was 4.23 h, the Tmax (in vivo; iv) was 5 min and the clearance (in vivo; iv) was 178 mL/min/kg. For the same compound, the half-life (in vivo; iv, T½, plasma, single IV, I5 200 mg/kg, dexamethasone sodium phosphate 40 mg/kg, table PK parameters in plasma) was 4.23 h, the Vd (in vivo; iv, Vss, plasma, single IV, I5 200 mg/kg, dexamethasone sodium phosphate 40 mg/kg) was 12.1 L/kg and the Vd (in vivo; iv, Vz, plasma, single IV, I5 200 mg/kg, dexamethasone sodium phosphate 40 mg/kg) was 65.3 L/kg. For the same compound, the Vd (in vivo; iv, distribution volume, Vss, plasma, IV) was 12.1 L/kg and the half-life (in vivo; iv, terminal elimination half-life in plasma, mice after IV dosing) was ~4.2 h.
For `CC(CC(=O)N/N=C(\CO)[C@@]1(O)[C@H](C)C[C@H]2[C@@H]3CCC4=CC(=O)C=C[C@]4(C)[C@@]3(F)C(O)C[C@@]21C)O[C@H]1OC(CO)[C@@H](O)C(O)C1O` (stereo partly shown) [MD4], the activated macrophage survival [1] was “particularly effective”.
In the case of `C[C@@H]1C[C@H]2[C@@H]3CCC4=CC(=O)C=C[C@]4(C)[C@@]3(F)C(O)C[C@]2(C)[C@@]1(O)C(=O)CO` (stereo partly shown) [dexamethasone, reference compound], the “increase of blood sugar levels (change from baseline)” value ([3]; dexamethasone 65 mg (so in the source), 30 to 120 minutes post administration) is reported as “about 15%”.
